“Also recorded” adds a separate entry of the source.
Key:
PBT-05 cells [1] = assay: In vitro chemotaxis assay (Incucyte transwell); assay type: cell-based, human; conditions: patient-derived pHGG line PBT-05
Text: Locally delivered therapeutics in the brain may need to account for the tendency of remnant brain tumor cells to migrate away from the tumor margins—potentially out of reach locally delivered therapeutics. Here, artificial gradients of chemokines were used to lure tumor cells and phagocytic cells in the brain towards a static “trap” of macrophage-enhancing therapeutics to facilitate tumor cell elimination. Referring to FIGS. 4A-4D, to model this, a patient-derived, pediatric high grade glioma (pHGG) line, PBT-05, was used. […] In vitro chemotaxis assays were carried out with PBT-05 against a panel of classical chemokines cited in literature as potentially being potent against migratory brain tumor cells. […] Without wishing to be bound by theory, it is believed that PBT-05's attraction towards hCCL2 gradients may be mediated by another receptor promiscuous with this chemokine. While this receptor was not identified, mCCL2 may not bind to it or produce the same downstream signaling. However, its chemotactic sensitivity to human and murine CXCL12 may be mediated by the canonical pathway.
Chemokines were purchased from: Sigma-Aldrich (CCL2: SRP3109) and RnD Systems (CXCL12: 350-NS/CF). Cell migration assays were performed using the chemotaxis module on the Incucyte Zoom 2016 and S3 (Essen Bio). Specialized 96 well transwell plates and reservoir dishes were supplied by the manufacturer (cat no's 4582, 4600). H2B-GFP+ PBT05 lines cells were cultured in the Neuralcult media+supplement without EGF/FGF to reduce background mobility caused by these growth factors. The Incucyte software was tailored to identify GFP+ nuclei to count the number of tumor cells on top and bottom of the transwell membranes.

human GB line = conditions: CXCR4 blocked; cited from earlier work
[2] = target: CD47 on PBT-05 patient-derived pediatric high grade glioma cells (human) (UniProt Q08722); assay: cell-based or functional assay
PBT-05 cells [3] = assay: In vitro phagocytosis assay, PBT-05 co-culture with murine bone marrow derived macrophages (BMDM); assay type: cell-based, human; conditions: for contribution to tumor cell cytotoxicity when added to CD47 blockade: murine macrophage co-cultures, compared with CD47 blockade alone; for effect on viability of tumor cells in co-culture: polarizing agent without CD47mAb
Text: These cultures were challenged with combinations of macrophage checkpoint inhibitors (MCIs) and immune cell polarizing factors described by literature as capable of promoting an immune response against tumor cells. […] Compared to a media control, no combination of MCIs and polarizing factors caused significant cytotoxicity of PBT-05 cells cultured alone, confirming the observed cytotoxic effect is mediated by the macrophages, not the drugs themselves.
Murine monocytes were harvested and cultured from femurs of C57BL/6 mice using RPMI (Thermofisher, 11875093) containing 10% heat deactivated FBS and 100 ng/mL mCSF1 for 7 days. Mature macrophages from these cultures were later harvested for experiments. Human monocytes were isolated from human PBMCs (Bloodworks) and purified by EasySep monocyte depletion kit (StemCell, 19355). Monocytes were cultured in RPMI containing 10% heat deactivated FBS and 25 ng/mL human CSF1 for 10 days. 50 ng/mL IL-10 was added to the cultures at day 5 to induce M2 phenotypes. Mature macrophages were later harvested for use in experiments.
Monoclonal antibodies were purchased from Bioxcell (LEAF hCD47, BE0019) and Biolegend (LEAF hCD24mAb: 101810, MsIgG1: 400153). Phagocytosis assays were performed using the Basic Analyzer software on Essen Bio's Incucyte Zoom and Incucyte S3. 12 or 24 well plates were seeded 1:1 with GFP+ tumor lines and macrophages (murine/human) in fully supplemented Neuralcult plus various MCIs and immunomodulators described previously. Using the aforementioned definitions, the Incucyte calculated tumor cell counts based on the number of GFP+ nuclei in the wells over time.

UniProt Q08722, sequence (Q08722 19-323): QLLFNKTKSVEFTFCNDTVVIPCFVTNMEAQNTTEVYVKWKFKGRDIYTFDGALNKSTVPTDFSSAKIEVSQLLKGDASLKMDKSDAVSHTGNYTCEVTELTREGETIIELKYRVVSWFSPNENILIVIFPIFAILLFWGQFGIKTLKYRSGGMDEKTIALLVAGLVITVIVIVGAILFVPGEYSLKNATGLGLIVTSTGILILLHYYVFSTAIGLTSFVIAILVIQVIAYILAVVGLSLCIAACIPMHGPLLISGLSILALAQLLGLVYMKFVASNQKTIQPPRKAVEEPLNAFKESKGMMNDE

mCXCL12: murine CXCL12 chemokine
chemotaxis of PBT-05 cells (chemotactic potency) (PBT-05 cells [1]): lost some potency

mCCL2: murine version of the chemokine CCL2
chemotaxis of PBT-05 cells (chemotactic potency) (PBT-05 cells [1]): unresponsive

c1cc(CN2CCCNCCNCCCNCC2)ccc1CN1CCCNCCNCCCNCC1 [AMD3100]
chemotaxis towards gradients of CXCL12 (human GB line): reduced chemotaxis

hCCL2: human CCL2 chemokine
chemotaxis of PBT-05 cells (chemotactic potency) (PBT-05 cells [1]): greatest potency of the chemokines tested

LEAF hCD47 monoclonal antibody (Bioxcell, BE0019)
phagocytosis of PBT-05 cells by murine and human macrophages in co-culture (tumor cell count); antibody concentration that was effective [2]: 1 µg/mL

CCL2: classical chemokine, purchased from Sigma-Aldrich (SRP3109)
chemotaxis of PBT-05 cells (chemotactic potency) (PBT-05 cells [1]): induced varying degrees of chemotaxis; also recorded: varying sensitivity

CXCL12: classical chemokine, ligand of CXCR4, purchased from RnD Systems (350-NS/CF)
chemotaxis of PBT-05 cells (chemotactic potency) (PBT-05 cells [1]): effective at eliciting chemotaxis; also recorded: induced varying degrees of chemotaxis; also recorded: effective at eliciting migration; also recorded: effectively chemoattract; also recorded: varying sensitivity

CCOCc1nc2c(N)nc3ccccc3c2n1CC(C)(C)O [R848, reference compound]
contribution to tumor cell cytotoxicity when added to CD47 blockade (PBT-05 cells [3]): did not significantly contribute to tumor cell cytotoxicity; also recorded: did not significantly increase cytotoxicity | effect on viability of tumor cells in co-culture (PBT-05 cells [3]): mild effects

B1: IFNg: polarizing agent (cytokine) that induces activated phenotypes in macrophages (protein, UniProt P01579 24-161, looked up)
Interferon gamma: QDPYVKEAENLKKYFNAGHSDVADNGTLFLGILKNWKEESDRKIMQSQIVSFYFKLFKNFKDDQSIQKSVETIKEDMNVKFFNSNKKKRDDFEKLTNYSVTDLNVQRKAIHELIQVMAELSPAAKTGKRKRSQMLFRG
contribution to tumor cell cytotoxicity when added to CD47 blockade (PBT-05 cells [3]): did not significantly contribute to tumor cell cytotoxicity; also recorded: did not significantly increase cytotoxicity | effect on viability of tumor cells in co-culture (PBT-05 cells [3]): mild effects

— US20230097658A1, “TUNABLE EXTENDED RELEASE HYDROGELS” (FRED HUTCHINSON CANCER RESEARCH CENTER, priority 2020, published 2023)
